We go through 22 compounds from patent publication US20150328193A1, “TREATMENT OF MTOR HYPERACTIVE RELATED DISEASES AND DISORDERS” (THE BRIGHAM AND WOMEN'S HOSPITAL, INC., priority 2012, published 2015).

pIC50, pKi: −log10 of the molar value. Counter-ions that a name gives are not always drawn.

In assay [1] the test system is 621-101 cells (TSC2-null, derived from a LAM patient). The assay can be described thus: High-throughput screen of known bioactives in 621-101 cells, ATP levels ([…] GLO) as cell viability, with or without rapamycin pretreatment. The note with it: for Synergy with rapamycin to bring about apoptosis in TSC2-null LAM cells: combination with rapamycin; for Normalized ATP levels drug alone (A) / Normalized ATP levels rapa + drug (B): 621-101 cells, 48-72 h; for Normalized ATP levels drug alone (A): DMSO pretreatment; for Normalized ATP levels rapa + drug (B): rapamycin (20 nM) pretreatment two hours plus drug; for ATP Fold Change (B):(A): ratio of rapa + drug to drug alone; for Inducing cell death in TSC2-null LAM cells as single agent: used individually in the absence of rapamycin; for Synergize with rapamycin to cause cell death / decrease ATP levels (confirmed hits): Rapamycin 20 nM, screen compounds 20 uM. It counts as cell-based, human. As for the experimental part:
Rapamycin was used at 20 nM and the screen compounds at 20 uM.
Cells are then pretreated with either Rapamycin (20 nM) or DMSO control in duplicate for two hours. Compound libraries are then added at the ICCB and allowed to incubate for 48-72 h. […] Treatment with staurosporine (1-2 uM) represents a positive control for cell death.
The inventors screened the Known Bioactives Collection at the ICCB which consists of approximately 7,000 compounds.

For assay [2], the system named is ELT3-V3 (TSC2-deficient) cells. The assay can be described thus: Paroxetine treatment of ELT3-V3 (TSC2-deficient) versus ELT3-T3 (re-expressing TSC2) cells. The format is cell-based, Eker rat. The arrangement: dose or concentration left out as unconfirmed. The note with it: 24 hrs. As for the experimental part: […] TSC2-deficient uterine leiomyoma cells derived from the Eker rat model of TSC, ELT3-V3 (TSC2-deficient) and ELT3-T3 (re-expressing TSC2) were treated with […] of DMSO or Paxil for 24 hrs.

A further assay deals with 621-101 cells. Description: Follow-up imaging of cell death/proliferation in 621-101 cells. The format is cell-based, human. The note with it: FIG. 1. As for the experimental part:
621-101 cells were pretreated for two hours with either DMSO (top two panels) or rapamycin (20 nM) bottom two panels) followed by the addition of fresh DMSO (top left), fresh rapamycin (bottom left), chelerythrine chloride (1 uM, top right), or rapamycin and chelerythrine chloride (bottom right). […] 4× magnification.

The next assay deals with T1, Aurora-A (Homo sapiens, UniProt O14965).
T1 sequence (O14965 1-403): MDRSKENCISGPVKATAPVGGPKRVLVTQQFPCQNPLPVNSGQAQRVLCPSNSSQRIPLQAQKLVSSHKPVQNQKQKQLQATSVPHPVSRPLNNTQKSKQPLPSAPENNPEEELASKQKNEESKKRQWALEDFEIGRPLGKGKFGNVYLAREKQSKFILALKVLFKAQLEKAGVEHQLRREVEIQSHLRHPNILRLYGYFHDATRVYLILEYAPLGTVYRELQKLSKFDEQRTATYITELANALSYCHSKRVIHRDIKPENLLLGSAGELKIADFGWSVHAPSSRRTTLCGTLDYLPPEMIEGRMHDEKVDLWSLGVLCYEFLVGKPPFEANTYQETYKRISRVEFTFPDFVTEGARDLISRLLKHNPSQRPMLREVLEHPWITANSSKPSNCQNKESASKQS
The note with it: cited from earlier work.

The target in a further assay is JAK2 kinase (Homo sapiens, UniProt O60674). The note with it: in vitro; cited from earlier work.
Chain of JAK2 kinase (O60674 whole entry): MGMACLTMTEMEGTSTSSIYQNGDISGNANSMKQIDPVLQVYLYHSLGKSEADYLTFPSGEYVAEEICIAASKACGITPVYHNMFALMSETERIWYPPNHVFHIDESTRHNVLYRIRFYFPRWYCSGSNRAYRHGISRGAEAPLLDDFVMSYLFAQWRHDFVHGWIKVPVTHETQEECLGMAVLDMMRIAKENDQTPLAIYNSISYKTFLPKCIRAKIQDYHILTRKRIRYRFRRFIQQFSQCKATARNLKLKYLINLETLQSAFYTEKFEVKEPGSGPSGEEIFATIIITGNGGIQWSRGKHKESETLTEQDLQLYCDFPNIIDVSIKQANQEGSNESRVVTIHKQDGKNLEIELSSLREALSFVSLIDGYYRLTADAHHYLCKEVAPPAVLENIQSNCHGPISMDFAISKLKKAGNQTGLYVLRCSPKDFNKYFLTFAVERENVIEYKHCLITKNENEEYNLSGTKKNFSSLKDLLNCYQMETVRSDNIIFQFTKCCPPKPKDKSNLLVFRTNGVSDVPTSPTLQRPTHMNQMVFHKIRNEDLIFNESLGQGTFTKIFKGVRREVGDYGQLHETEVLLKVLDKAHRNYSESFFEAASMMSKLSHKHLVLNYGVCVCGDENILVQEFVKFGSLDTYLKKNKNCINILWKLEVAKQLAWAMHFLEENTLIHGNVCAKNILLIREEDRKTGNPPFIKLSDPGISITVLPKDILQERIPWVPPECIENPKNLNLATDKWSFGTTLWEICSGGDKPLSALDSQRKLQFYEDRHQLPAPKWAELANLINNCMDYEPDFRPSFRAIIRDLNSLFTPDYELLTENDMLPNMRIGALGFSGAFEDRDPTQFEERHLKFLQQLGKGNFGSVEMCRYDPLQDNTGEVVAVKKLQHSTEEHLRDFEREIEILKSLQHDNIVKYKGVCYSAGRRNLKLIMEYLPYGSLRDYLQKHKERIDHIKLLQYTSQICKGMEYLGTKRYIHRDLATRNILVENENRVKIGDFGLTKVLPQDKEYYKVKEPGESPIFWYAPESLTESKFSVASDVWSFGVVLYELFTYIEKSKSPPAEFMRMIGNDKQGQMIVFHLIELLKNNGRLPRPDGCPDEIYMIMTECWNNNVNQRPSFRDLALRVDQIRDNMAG
For the next assay, the target named is TrkA (Homo sapiens, UniProt P04629). The note with it: cited from earlier work.
Chain of TrkA (P04629 33-796, species assumed): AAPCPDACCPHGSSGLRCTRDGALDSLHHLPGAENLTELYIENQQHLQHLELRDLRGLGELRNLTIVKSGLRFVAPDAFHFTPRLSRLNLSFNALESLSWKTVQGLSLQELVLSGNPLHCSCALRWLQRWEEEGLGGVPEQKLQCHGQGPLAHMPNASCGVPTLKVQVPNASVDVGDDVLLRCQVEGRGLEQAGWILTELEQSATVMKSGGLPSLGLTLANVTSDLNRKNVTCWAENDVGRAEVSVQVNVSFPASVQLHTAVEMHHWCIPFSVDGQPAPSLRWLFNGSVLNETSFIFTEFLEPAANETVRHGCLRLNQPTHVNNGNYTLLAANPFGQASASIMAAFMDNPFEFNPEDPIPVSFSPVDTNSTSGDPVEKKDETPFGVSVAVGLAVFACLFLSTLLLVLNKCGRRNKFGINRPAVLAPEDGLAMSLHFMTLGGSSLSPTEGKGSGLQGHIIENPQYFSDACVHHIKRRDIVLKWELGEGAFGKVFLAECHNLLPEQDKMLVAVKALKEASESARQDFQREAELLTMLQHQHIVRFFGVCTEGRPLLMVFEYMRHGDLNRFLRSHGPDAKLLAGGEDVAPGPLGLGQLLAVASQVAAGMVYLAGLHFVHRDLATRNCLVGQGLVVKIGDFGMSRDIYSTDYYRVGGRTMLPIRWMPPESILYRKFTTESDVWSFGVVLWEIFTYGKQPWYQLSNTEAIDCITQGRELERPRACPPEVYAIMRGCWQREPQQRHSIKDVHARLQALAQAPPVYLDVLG
The next assay concerns the target FAK (Homo sapiens, UniProt Q05397). The note with it: cited from earlier work.

As a reminder, the pIC50 is the IC50 on a negative log10 scale, so that one unit is a factor of ten. Broadly, the pKi is −log10 of the Ki, conventionally taken in molar units.

Chain of FAK (Q05397 whole entry, species assumed): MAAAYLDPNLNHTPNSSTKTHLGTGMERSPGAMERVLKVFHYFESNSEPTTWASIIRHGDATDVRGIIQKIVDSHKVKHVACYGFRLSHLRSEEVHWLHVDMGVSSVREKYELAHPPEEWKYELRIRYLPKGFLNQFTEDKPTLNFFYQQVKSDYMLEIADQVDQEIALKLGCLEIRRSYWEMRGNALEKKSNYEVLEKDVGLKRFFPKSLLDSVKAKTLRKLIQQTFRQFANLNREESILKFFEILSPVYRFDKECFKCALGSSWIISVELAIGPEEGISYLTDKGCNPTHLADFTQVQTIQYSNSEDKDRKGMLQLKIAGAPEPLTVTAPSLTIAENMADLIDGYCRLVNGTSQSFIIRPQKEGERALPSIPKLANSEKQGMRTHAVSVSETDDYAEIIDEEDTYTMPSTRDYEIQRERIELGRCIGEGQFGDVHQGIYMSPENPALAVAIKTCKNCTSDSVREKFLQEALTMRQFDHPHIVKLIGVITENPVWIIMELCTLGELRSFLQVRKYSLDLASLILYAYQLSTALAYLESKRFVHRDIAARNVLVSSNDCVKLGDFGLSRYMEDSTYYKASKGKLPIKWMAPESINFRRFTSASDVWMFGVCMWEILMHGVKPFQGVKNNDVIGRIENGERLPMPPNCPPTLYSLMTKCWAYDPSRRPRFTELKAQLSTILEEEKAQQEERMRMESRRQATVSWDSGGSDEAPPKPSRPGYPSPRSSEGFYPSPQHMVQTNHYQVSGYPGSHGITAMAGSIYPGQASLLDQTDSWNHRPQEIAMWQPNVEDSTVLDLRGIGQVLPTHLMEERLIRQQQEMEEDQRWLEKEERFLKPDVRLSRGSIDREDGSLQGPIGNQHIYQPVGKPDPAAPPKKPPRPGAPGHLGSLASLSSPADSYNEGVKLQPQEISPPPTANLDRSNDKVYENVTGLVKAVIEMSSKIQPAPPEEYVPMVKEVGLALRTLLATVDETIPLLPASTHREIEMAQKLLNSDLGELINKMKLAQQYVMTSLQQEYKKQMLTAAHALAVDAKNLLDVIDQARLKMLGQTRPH

On to `COc1ccc2c(c1)CC[C@@H]1[C@@H]2CC[C@]2(C)[C@@H](NCCCCCCN3C(=O)CCC3=O)CC[C@@H]12` [U-73343, 1-[6-[((17β)-3-Methoxyestra-1,3,5[10]-trien-17-yl)amino]hexyl]-2,5-pyrrolidinedione], for which, in assay [1], the “Synergy with rapamycin to bring about apoptosis in TSC2-null LAM cells” value (“Synergy with rapamycin” below) is “worked synergistically with rapamycin”.
Take `OCc1cc(C(O)CNCCCCCCOCCCCc2ccccc2)ccc1O` (centres unmarked) [Salmeterol]: in assay [1], the “Normalized ATP levels drug alone (A)” value is listed as 0.184, the “Normalized ATP levels rapa + drug (B)” value is listed as 0.456, the “ATP Fold Change (B):(A)” value is recorded as 2.5 (β blocker) and the “Inducing cell death in TSC2-null LAM cells as single agent” value (“Inducing cell death” below) was “surprisingly effective at inducing cell death”.
`Fc1ccc([C@@H]2CCNC[C@H]2COc2ccc3c(c2)OCO3)cc1` [paroxetine, (3S,4R)-3-[(2H-1,3-benzodioxol-5-yloxy)methyl]-4-(4-fluorophenyl)piperidine]: in assay [1], the “Inducing cell death” value is “surprisingly effective at inducing cell death”. Further, in assay [2], the “Apoptosis of ELT3-V3 (TSC2-deficient) cells” value was “susceptible to Paxil induced apoptosis” and the “Selectivity for TSC2-deficient ELT3-V3 versus ELT3-T3 cells” value was “selective to Tsc2-null cells”.
Turning to `NC[C@@H]1O[C@H](C23CC4CC(CC(C4)C2)C3)Cc2c1ccc(O)c2O` [A-77636], the “Inducing cell death” value in assay [1] is reported as “surprisingly effective at inducing cell death”.
Turning to `CN1CCN(CCCN2c3ccccc3Sc3ccc(C(F)(F)F)cc32)CC1` [trifluoperazine, 10-[3-(4-methylpiperazin-l-yl)propyl]-2-(trifluoromethyl)-10H-phenothiazine], the “Inducing cell death” value in assay [1] is “surprisingly effective at inducing cell death”.
On to `C[CH2][Hg][S]c1ccccc1C(=O)[O-].[Na+]` [Thimerosal, Ethyl(2-mercaptobenzoato-(2-)-O,S) mercurate(1-) sodium], for which, in assay [1], the “Synergy with rapamycin” value is reported as “worked synergistically with rapamycin”.
In the case of `OCCN1CCN(CC/C=C2/c3ccccc3Sc3ccc(C(F)(F)F)cc32)CC1` [Flupenthixol 2HCl], in assay [1], the “Normalized ATP levels drug alone (A)” value is 0.273, the “Normalized ATP levels rapa + drug (B)” value amounted to 0.776, the “ATP Fold Change (B):(A)” value is reported as 2.8 (Anti-psychotic) and the “Inducing cell death” value is given as “surprisingly effective at inducing cell death”.
Take `CO[C@H]1C[C@@H]2CC[C@@H](C)[C@@](O)(O2)C(=O)C(=O)N2CCCC[C@H]2C(=O)O[C@H]([C@H](C)C[C@@H]2CC[C@@H](O)[C@H](OC)C2)CC(=O)[C@H](C)/C=C(\C)[C@@H](O)[C@@H](OC)C(=O)[C@H](C)C[C@H](C)/C=C/C=C/C=C/1C` [rapamycin]: the “Cell death in 621-101 cells” value in the assay on 621-101 cells is given as “does not induce cell death”.
Turning to “(7R)-7-(Acetyloxy)-4-hydroxy-N,N,N-trimethyl-3,5,9-trioxa-4-phosphapentacosan-1-aminium-4-oxide [PAF C16]”, the “Synergy with rapamycin” value in assay [1] is recorded as “worked synergistically with rapamycin”.
Take `C/N=c1\nc(-c2ccccc2)n(-c2ccccc2)s1` [SCH-202676 hydrobromide, (N-(2,3-diphenyl-1,2,4-thiadiazol-5-(2H)-ylidene)methanamine) hydrobromide]: in assay [1], the “Synergize with rapamycin to cause cell death / decrease ATP levels (confirmed hits)” value was “confirmed as hits” and the “Synergy with rapamycin” value is reported as “worked synergistically with rapamycin”.
Regarding `CCC1(c2ccc(N)cc2)CCC(=O)NC1=O` (centres unmarked) [Aminoglutethimide], in assay [1], the “Normalized ATP levels drug alone (A)” value was 0.474, the “Normalized ATP levels rapa + drug (B)” value is reported as 1.264, the “ATP Fold Change (B):(A)” value was 2.7 (Anticonvulsant) and the “Inducing cell death” value is reported as “surprisingly effective at inducing cell death”.
For `CNCCC(Oc1ccc(C(F)(F)F)cc1)c1ccccc1` (racemic) [fluoxetine, (RS)-N-methyl-3-phenyl-3-[4-(trifluoromethyl)phenoxy]propan-1-amine], in assay [1], the “Inducing cell death” value is recorded as “surprisingly effective at inducing cell death”.
Take `C[C@H](CCC(=O)O)C[C@H](C)C[C@H](C)C(=O)/C=C(\O)[C@H](C)C[C@H](C)C/C=C/[C@@H](C)[C@@H](O)[C@@H](C)[C@@H](O)C[C@@H]1CC[C@@](C)([C@H]2CC[C@@](C)([C@@H](C)O)O2)O1` [ionomycin]: in assay [1], the “Synergy with rapamycin” value is listed as “worked synergistically with rapamycin”.
As for `Cc1cc(Nc2nc(N[C@@H](C)c3ccc(F)cc3)c(C#N)cc2F)n[nH]1` [AZ-960], the “Synergize with rapamycin to cause cell death / decrease ATP levels (confirmed hits)” value in assay [1] is reported as “confirmed as hits”. Moreover, in assay [1], the “Synergy with rapamycin” value was “worked synergistically with rapamycin”. In addition, the pIC50 at Aurora-A, on TrkA and at FAK was about 7.00 each time. For the same compound, the negative logarithm of the Ki (pKi) on JAK2 kinase is 9.35.
For `CO[C@@H](C(=O)N1Cc2[nH]nc(NC(=O)c3ccc(N4CCN(C)CC4)cc3)c2C1)c1ccccc1` [danusertib (PHA-739358)], in assay [1], the “Synergize with rapamycin to cause cell death / decrease ATP levels (confirmed hits)” value was “confirmed as hits” and the “Synergy with rapamycin” value is reported as “worked synergistically with rapamycin”.
The matching figures for `CN(C)CCOc1ccc(-c2nc(-c3ccncc3)c(-c3ccc4c(c3)CC/C4=N\O)[nH]2)cc1` [SB-590885]: “confirmed as hits” and “worked synergistically with rapamycin”.
As for `CC(C)NCC(O)COc1ccc(CCOCC2CC2)cc1` (centres unmarked) [Betaxolol HCl], in assay [1], the “Normalized ATP levels drug alone (A)” value is reported as 0.487, the “Normalized ATP levels rapa + drug (B)” value worked out at 1.27, the “ATP Fold Change (B):(A)” value is 2.6 (β blocker) and the “Inducing cell death” value is given as “surprisingly effective at inducing cell death”.
As for `CNCCC=C1c2ccccc2CCc2ccccc21` [nortriptyline, 3-(10,11-dihydro-5H-dibenzo[a,d]cyclohepten-5-ylidene)-N-methyl-1-propanamine], the “Inducing cell death” value in assay [1] is recorded as “surprisingly effective at inducing cell death”.
For the compound `O=C(Nc1cccc(Nc2ncc(Br)c(NCCc3cnc[nH]3)n2)c1)N1CCCC1` [BX912, N-(3-(4-(2-(1H-imidazol-5-yl)ethylamino)-5-bromopyrimidin-2-ylamino)phenyl)pyrrolidine-1-carboxamide], the “Synergy with rapamycin” value in assay [1] was “worked synergistically with rapamycin”.
Regarding `OCCN1CCN(CCCN2c3ccccc3Sc3ccc(C(F)(F)F)cc32)CC1` [Fluphenazine 2HCl], in assay [1], the “Normalized ATP levels drug alone (A)” value turned out to be 0.069, the “Normalized ATP levels rapa + drug (B)” value came out at 0.191, the “ATP Fold Change (B):(A)” value was 2.8 (Anti-psychotic) and the “Inducing cell death” value is “surprisingly effective at inducing cell death”.
For the compound `COC(=O)C1=C(C)NC(C)=C(C(=O)OCCN(C)Cc2ccccc2)C1c1cccc([N+](=O)[O-])c1` (centres unmarked) [nicardipine], in assay [1], the “Synergy with rapamycin” value is reported as “worked synergistically with rapamycin”.
As for `CCC1(c2ccccc2)NC(=O)N(C)C1=O` (centres unmarked) [Mephenytoin], in assay [1], the “Normalized ATP levels drug alone (A)” value was found to be 0.425, the “Normalized ATP levels rapa + drug (B)” value amounted to 1.17, the “ATP Fold Change (B):(A)” value was 2.8 (Anticonvulsant) and the “Inducing cell death” value was “surprisingly effective at inducing cell death”.
